In the NIST ThermoML archive (doi:10.1016/j.jct.2015.02.009):

Assays:
[1] = for molar entropy: 101.33 kPa, Vacuum adiabatic calorimetry; for Triple point temperature: Adiabatic calorimetry
[2] = Molar enthalpy of transition or fusion; conditions: Crystal 1; Adiabatic calorimetry
[3] = molar heat capacity at saturation pressure; conditions: Crystal 2, Vacuum adiabatic calorimetry

O=c1c2ccccc2oc2ccccc12 [9H-xanthen-9-one]
[1]
Conditions	molar entropy [J/K/mol]
5 K, Crystal 2	0.1497
10 K, Crystal 2	1.189
20 K, Crystal 2	7.009
30 K, Crystal 2	15.42
40 K, Crystal 2	24.67
50 K, Crystal 2	34.01
60 K, Crystal 2	43.17
70 K, Crystal 2	52.07
80 K, Crystal 2	60.7
90 K, Crystal 2	69.08
100 K, Crystal 2	77.26
120 K, Crystal 2	93.11
140 K, Crystal 2	108.46
160 K, Crystal 2	123.49
180 K, Crystal 2	138.32
200 K, Crystal 2	153.04
220 K, Crystal 2	167.73
240 K, Crystal 2	182.41
260 K, Crystal 2	197.12
280 K, Crystal 2	211.88
298.15 K, Crystal 2	225.36
300 K, Crystal 2	226.74
304.5 K, Crystal 1	230.12
304.5 K, Crystal 2	230.12
320 K, Crystal 1	241.19
340 K, Crystal 1	255.47
360 K, Crystal 1	269.69
380 K, Crystal 1	283.87
400 K, Crystal 1	298
420 K, Crystal 1	312.06
440 K, Crystal 1	326.08
448.8 K, Crystal 1	332.22
448.8 K, Liquid	393.44
460 K, Liquid	402.2
480 K, Liquid	417.58
500 K, Liquid	432.68
520 K, Liquid	447.51

Conditions	mass density [kg/m3]
[1], 473 K, Liquid, Pycnometric method	1090

Conditions	Triple point temperature [K]	molar heat capacity [J/K/mol]
[1], Crystal 1	448.8	–
[1], Crystal 2	304.5	–
[3], 4.948 K	–	0.4157
[3], 5 K	–	0.449
[3], 5.884 K	–	0.7317
[3], 6.774 K	–	1.131
[3], 7.756 K	–	1.68
[3], 8.886 K	–	2.494
[3], 10 K	–	3.475
[3], 10.01 K	–	3.492
[3], 11.15 K	–	4.606
[3], 12.42 K	–	5.895
[3], 13.82 K	–	7.574
[3], 15.41 K	–	9.42
[3], 17.21 K	–	11.62
[3], 19.14 K	–	14.03
[3], 20 K	–	15.07
[3], 21.27 K	–	16.62
[3], 23.69 K	–	19.61
[3], 26.45 K	–	22.93
[3], 29.52 K	–	26.48
[3], 30 K	–	27.03
[3], 32.99 K	–	30.34
[3], 36.76 K	–	34.3
[3], 40 K	–	37.43
[3], 40.81 K	–	38.18
[3], 45.21 K	–	42.3
[3], 49.99 K	–	46.39
[3], 50 K	–	46.4
[3], 55.3 K	–	50.63
[3], 60 K	–	54.19
[3], 61.27 K	–	55.12
[3], 67.42 K	–	59.55
[3], 70 K	–	61.32
[3], 74.05 K	–	64.05
[3], 80 K	–	68.05
[3], 81.42 K	–	68.99
[3], 89.28 K	–	74.02
[3], 90 K	–	74.5
[3], 97.77 K	–	79.43
[3], 100 K	–	80.83
[3], 107.1 K	–	85.28
[3], 116.86 K	–	91.41
[3], 120 K	–	93.39
[3], 126.79 K	–	97.69
[3], 136.84 K	–	104.11
[3], 140 K	–	106.16

Conditions	Molar enthalpy of transition or fusion [kcal/mol]
[2]	6.567
